In patent US7994182B2 (Pecsi Tudomanyegyetem, priority 2003, dated 2011):
pIC50: −log10 of the molar value. Like-named read-outs stand apart in the source and are kept apart here.

How the values were obtained:
[1] = test system: WRL-68 human liver cell line; assay: Protecting effect against hydrogen peroxide induced cell death in WRL-68 cells (MTT cell survival); format: cell-based; settings: 3 hours; for pIC50: read-out: IC50: concentration where the hydrogen peroxide induced cell death was inhibited by 50%; for Emax: read-out: Maximum protection
Experimental: The protecting effect of 4-quinazolinone derivatives against cell death caused by hydrogen peroxide in WRL-68 human liver cell line.
The human WRL-68 cell line was obtained from American Type Culture Collection (Rockville, Md.). The one layer thick cell lines were cultured in Dulbecco's modified. Eagle medium containing 1% antibiotic-antimycotic solution and 10% fetal calf serum under humid 37° C. air containing 5% CO2. The cells were separated every three days.
The cells were transformed to a 96-well plate with 2.5×10^4 cells/well initial concentration and were cultured overnight in humid 37° C. air containing 5% CO2. The following day 0.3 mM hydrogen peroxide was added to the medium either by itself or in the presence of one of the protecting agents. Three hours later the medium was removed and 0.5% water-soluble mitochondria stain, 3-(4,5-dimethylthiazol-2-yl)-2;5-diphenyl-tetrazolium bromide (MTT^+) was added to the cells. […] The optical density was determined at 550 nm by Anthos Labtech 2010 ELISA Reader (Wien, Austria). In every experiment at least 6 parallel samples were treated and the experiments were repeated three times. Table 1 presents the concentrations (given in μM) where the hydrogen peroxide induced cell death was inhibited by 50%.

[2] = molecular target: T1, poly(ADP-ribose) polymerase enzyme isolated from rat liver (Rattus norvegicus, UniProt P27008); assay: In vitro inhibitory effect on PARP enzyme ([3H]-NAD+ incorporation); format: biochemical; settings: 1 mM [3H]-NAD+, 15 minutes incubation
T1 construct: The poly(ADP-ribose) polymerase enzyme was isolated from rat liver as described earlier; from tissue; host or cells: rat liver
T1 sequence (P27008 whole entry): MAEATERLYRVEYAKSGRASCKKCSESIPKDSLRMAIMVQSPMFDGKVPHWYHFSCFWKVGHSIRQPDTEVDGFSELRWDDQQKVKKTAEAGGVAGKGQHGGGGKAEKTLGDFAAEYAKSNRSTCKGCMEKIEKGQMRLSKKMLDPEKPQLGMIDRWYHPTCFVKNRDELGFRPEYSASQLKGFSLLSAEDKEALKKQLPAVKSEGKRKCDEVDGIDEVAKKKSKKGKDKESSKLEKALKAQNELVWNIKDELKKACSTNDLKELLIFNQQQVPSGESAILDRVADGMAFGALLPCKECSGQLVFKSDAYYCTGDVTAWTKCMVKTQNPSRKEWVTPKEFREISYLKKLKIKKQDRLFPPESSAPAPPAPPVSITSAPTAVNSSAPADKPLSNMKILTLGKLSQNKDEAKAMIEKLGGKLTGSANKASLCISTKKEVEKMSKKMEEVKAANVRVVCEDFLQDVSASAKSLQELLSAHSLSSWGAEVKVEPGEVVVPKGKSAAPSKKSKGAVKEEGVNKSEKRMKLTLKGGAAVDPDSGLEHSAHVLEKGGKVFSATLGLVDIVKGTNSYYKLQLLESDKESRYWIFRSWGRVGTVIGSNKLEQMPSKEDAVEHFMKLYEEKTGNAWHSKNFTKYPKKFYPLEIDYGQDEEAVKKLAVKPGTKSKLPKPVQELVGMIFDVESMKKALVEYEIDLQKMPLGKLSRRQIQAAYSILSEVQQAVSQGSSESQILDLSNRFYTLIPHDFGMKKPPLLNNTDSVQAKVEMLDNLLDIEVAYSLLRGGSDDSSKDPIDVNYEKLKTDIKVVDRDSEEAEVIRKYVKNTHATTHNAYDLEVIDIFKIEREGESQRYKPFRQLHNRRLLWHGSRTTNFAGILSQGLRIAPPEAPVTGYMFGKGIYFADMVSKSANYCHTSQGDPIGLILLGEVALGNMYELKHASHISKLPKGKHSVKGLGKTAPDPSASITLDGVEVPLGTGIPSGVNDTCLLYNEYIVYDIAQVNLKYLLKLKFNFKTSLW
Experimental: The In Vitro Inhibitory Effect of 4-quinazolinone Derivatives on PARP Enzyme
The poly(ADP-ribose) polymerase enzyme was isolated from rat liver as described earlier. The putative inhibitory effect of 4-quinazolinone derivatives was examined in this experiment. The activity of the PARP enzyme was determined in 130 μl solution containing 100 mM Tris-HCl buffer (pH 8.0), 10 mM MgCl2, 10% glycerol, 1.5 mM DTT, 1 mM [Adenin-2,8-^3H]-NAD^+ (4,500 cpm/nmol), 10 μg activated DNA and 10 μg histone. With or without the presence of 4-quinazolinone derivatives, the samples were incubated for 15 minutes, then the reactions were brought to stop by the addition of 8% trichloroacetic acid. After the addition of 0.5 mg albumin the samples were allowed to precipitate for 20 minutes on ice, then the insoluble substances were filtered on a glass filter, collected and washed five times with 5% perchloric acid. The protein-bound radioactivity was measured by LS-200 Beckman scintillation counter, the data is presented in μM in Table 2.

[3] = Homo sapiens, WRL68, 0.3 mM hydrogen peroxide

| SMILES | pIC50 [1, 3] | Emax [1, 3] | other results |
| --- | --- | --- | --- |
| O=c1[nH]c(S)nc2ccccc12 [Compound 3, 2-mercaptoquinazolin-4(3H)one, reference compound] | 4.15 | 52% | – |
| CC1(C)C=C(c2nc3ccccc3c(=O)[nH]2)C(C)(C)N1O [Compound 21, 2-(1-Oxyl-2,2,5,5-tetramethyl-2,5-dihydro-1H-pyrrol-3-yl)quinazolin-4(3H)-one] | < 4.00 | 0% | – |
| CC1(C)C=C(CSc2nc3ccccc3c(=O)[nH]2)C(C)(C)N1 [Compound 13, 2-{[(2,2,5,5-Tetramethyl-2,5-dihydro-1H-pyrrol-3-yl)methyl]thio}quinazolin-4(3H)-one] | – | – | melting point: 150 to 151 °C |
| Cc1nc2ccccc2c(=O)n1CC1=CC(C)(C)NC1(C)C [Compound 9, 3-[(2,2,5,5-Tetramethyl-2,5-dihydro-1H-pyrrol-3-yl)methyl]-2-methylquinazolin-4(3H)-one] | 5.00 | 15% | – |
| CN(C)CCCSc1nc2ccccc2c(=O)[nH]1 [Compound 17b, 2-{[3(Dimethylamino)propyl]thio}quinazolin-4(3H)-one] | 5.32 | 65% | pIC50 [2]: 5.22 |
| CN(C)CCSc1nc2ccccc2c(=O)[nH]1 [Compound 17a] | 6.82 | 68% | pIC50 [2]: 5.70 |
| O=c1[nH]c(SCCN2CCCCC2)nc2ccccc12 [Compound 17c, 2-[(2-Piperidin-1-ylethyl)thio]quinazolin-4(3H)-one] | 6.10 | 62% | pIC50 [2]: 5.59 |
| CC1(C)C=C(c2nc3ccccc3c(=O)[nH]2)C(C)(C)N1 [Compound 22, 2-(2,2,5,5-Tetramethyl-2,5 dihydro-1H-pyrrol-3-yl)quinazolin-4(3H)-one] | – | – | melting point: 254 to 256 °C |
| Cc1nc2ccccc2c(=O)[nH]1 [Compound 2, 2-methylquinazolin-4(3H)one, reference compound] | 5.40 | 54% | – |
| CC1(C)CCCC(C)(C)N1CCSc1nc2ccccc2c(=O)[nH]1 [Compound 17d, 2-{[2-(2,2,6,6-Tetramethylpiperidin-1-yl)ethyl]thio}quinazolin-4(3H)-one] | 7.00 | 69.6% | pIC50 [2]: 5.80 |
| Cc1nc2ccccc2c(=O)n1CC1=CC(C)(C)N([O])C1(C)C [Compound 8, 3-[(1-Oxyl-2,2,5,5-tetramethyl-2,5-dihydro-1H-pyrrol-3-yl)methyl]-2-methylqunazolin-4(3H)-one] | – | – | Maximum protection ([1]; 0.3 mM hydrogen peroxide): 0%; pIC50 ([1]; 0.3 mM hydrogen peroxide): < 4.00 |
| CC1(C)C=C(CSC2=Nc3ccccc3C(=O)C2)CC(C)(C)N1 [Compound 15, 2-{[(2,2,6,6-Tetramethyl-1,2,3,6-tetrahydropyridin-4-yl)methyl]thio}quinolin-4(3H)-one] | 5.00 | 61% | – |
| CC1(C)C=C(c2nc3ccccc3c(=O)[nH]2)CC(C)(C)N1 [Compound 24, 2-(2,2,6,6-Tetramethyl-1,2,3,6-tetrahydropyridin-4-yl)quinazolin-4(3H)-one] | 4.92 | 50% | – |
| CC1(C)C=C(c2nc3ccccc3c(=O)[nH]2)CC(C)(C)N1O [Compound 23, 2-(1-Oxyl-2,2,6,6-tetramethyl-1,2,3,6-tetrahydropyridin-4-yl)quinazolin-4(3H)-one] | 4.89 | 50% | – |
| CC1(C)C=C(CSc2nc3ccccc3c(=O)[nH]2)C(C)(C)N1O [Compound 12, 2-{[(1-Oxyl-2,2,5,5-tetramethyl-2,5-dihydro-1H-pyrrol-3-yl)methyl]thio}quinazolin-4(3H)-one] | – | – | melting point: 138 to 140 °C |
